In patent US10858362B2, “Imidazopyrazinones as PDE1 inhibitors” (H. Lundbeck A/S, priority 2015, dated 2020):

Experiments:
Assay type in all cases: biochemical
PDE1B = PDE1B (Homo sapiens (Human), UniProt Q01064); experiment: PDE1 inhibition assay, PDE1B; details: for IC50: 15 nM tritium labelled cAMP
Protocol: (§1) Reactions were initiated by addition of the cyclic nucleotide substrate, and reactions were allowed to proceed for 1 h at room temperature before being terminated through mixing with 20 μL (0.2 mg) yttrium silicate SPA beads (PerkinElmer). The beads were allowed to settle for 1 h in the dark before the plates were counted in a Wallac 1450 Microbeta counter.

PDE1C = PDE1C (Homo sapiens (Human), UniProt Q14123); experiment: PDE1 inhibition assay, PDE1C; details: 15 nM tritium labelled cAMP
Protocol: as §1

PDE1A = PDE1A (Homo sapiens (Human), UniProt P54750); experiment: PDE1 inhibition assay, PDE1A; details: for IC50: 15 nM tritium labelled cAMP
Protocol: Reactions were initiated by addition of the cyclic nucleotide substrate, and reactions were allowed to proceed for 1 h at room temperature before being terminated through mixing with 20 μL (0.2 mg) yttrium silicate SPA beads (PerkinElmer).

PDE9 = PDE9 (Homo sapiens (Human), UniProt O76083); experiment: PDE9 inhibition assay
Outline: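 SPA radiometric read-out: after a 1 hr reaction, yttrium silicate beads were added, allowed to settle 1 hr in the dark and counted. Substrate 10 nM ^3H-cAMP, PDE9 amount giving 20-25% conversion, buffer 50 mM HEPES pH 7.6/10 mM MgCl2/0.02% Tween20, varying inhibitor amounts.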

Chain of PDE9 (O76083 whole entry): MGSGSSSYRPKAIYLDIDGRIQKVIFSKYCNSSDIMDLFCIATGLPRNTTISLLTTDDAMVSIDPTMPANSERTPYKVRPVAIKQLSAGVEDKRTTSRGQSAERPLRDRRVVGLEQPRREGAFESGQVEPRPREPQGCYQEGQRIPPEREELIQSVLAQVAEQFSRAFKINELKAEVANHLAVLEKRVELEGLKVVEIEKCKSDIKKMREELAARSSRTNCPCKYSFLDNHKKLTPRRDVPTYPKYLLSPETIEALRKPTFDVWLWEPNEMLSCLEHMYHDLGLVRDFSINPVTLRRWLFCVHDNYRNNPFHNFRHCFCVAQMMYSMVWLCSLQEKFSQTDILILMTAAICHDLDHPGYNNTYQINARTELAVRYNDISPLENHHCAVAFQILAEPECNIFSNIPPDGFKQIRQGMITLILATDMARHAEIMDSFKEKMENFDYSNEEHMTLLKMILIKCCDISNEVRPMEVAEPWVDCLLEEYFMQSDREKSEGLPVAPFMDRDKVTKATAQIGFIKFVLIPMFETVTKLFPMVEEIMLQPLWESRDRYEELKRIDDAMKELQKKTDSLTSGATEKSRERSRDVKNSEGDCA
Chain of PDE1B (Q01064 whole entry): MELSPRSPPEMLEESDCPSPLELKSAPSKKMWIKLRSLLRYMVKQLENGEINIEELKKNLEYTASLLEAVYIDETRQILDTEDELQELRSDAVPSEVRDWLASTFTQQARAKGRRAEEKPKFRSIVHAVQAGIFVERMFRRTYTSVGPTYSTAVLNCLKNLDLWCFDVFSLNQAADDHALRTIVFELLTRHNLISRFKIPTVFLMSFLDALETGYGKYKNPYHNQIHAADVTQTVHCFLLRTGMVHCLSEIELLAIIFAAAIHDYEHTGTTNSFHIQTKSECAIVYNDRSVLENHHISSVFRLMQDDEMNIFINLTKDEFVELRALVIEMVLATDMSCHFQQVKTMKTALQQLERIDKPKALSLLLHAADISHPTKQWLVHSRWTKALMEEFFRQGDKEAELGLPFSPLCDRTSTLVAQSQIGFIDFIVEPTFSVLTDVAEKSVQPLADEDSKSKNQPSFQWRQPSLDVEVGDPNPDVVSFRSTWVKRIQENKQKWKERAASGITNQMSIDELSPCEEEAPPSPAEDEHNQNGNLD
Chain of PDE1C (Q14123 whole entry): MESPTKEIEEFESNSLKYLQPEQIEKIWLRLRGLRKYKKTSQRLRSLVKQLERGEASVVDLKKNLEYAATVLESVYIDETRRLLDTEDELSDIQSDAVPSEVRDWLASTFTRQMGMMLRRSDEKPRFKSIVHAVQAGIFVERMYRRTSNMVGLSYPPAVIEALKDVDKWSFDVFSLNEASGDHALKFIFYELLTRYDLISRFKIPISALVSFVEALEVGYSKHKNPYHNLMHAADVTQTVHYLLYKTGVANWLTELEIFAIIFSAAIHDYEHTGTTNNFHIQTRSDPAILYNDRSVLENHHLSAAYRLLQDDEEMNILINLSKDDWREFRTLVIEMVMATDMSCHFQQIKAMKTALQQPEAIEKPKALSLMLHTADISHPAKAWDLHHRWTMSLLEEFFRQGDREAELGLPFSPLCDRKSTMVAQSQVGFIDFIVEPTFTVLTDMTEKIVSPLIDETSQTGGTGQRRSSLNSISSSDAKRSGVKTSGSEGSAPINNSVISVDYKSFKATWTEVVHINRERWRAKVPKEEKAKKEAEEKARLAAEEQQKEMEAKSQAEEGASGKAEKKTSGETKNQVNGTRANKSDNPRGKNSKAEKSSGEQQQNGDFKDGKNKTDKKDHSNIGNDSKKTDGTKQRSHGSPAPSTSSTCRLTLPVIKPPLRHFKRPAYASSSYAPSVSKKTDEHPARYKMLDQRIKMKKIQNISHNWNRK
Chain of PDE1A (P54750 whole entry): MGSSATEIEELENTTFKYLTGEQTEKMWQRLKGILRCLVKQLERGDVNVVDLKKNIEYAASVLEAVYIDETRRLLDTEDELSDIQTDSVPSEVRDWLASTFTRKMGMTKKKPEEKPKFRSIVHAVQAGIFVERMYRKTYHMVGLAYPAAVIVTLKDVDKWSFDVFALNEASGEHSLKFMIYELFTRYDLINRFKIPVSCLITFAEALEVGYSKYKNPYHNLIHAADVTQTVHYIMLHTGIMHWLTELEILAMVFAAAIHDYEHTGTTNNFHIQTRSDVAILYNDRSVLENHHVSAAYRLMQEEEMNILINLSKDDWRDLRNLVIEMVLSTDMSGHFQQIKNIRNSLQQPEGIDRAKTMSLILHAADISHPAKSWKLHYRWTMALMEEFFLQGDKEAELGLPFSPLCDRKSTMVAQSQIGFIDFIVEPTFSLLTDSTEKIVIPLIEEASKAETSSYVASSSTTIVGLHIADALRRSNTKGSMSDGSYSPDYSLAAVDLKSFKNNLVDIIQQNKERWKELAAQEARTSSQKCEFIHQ

IC50 (PDE1B)	IC50 (PDE1C)	IC50 (PDE1A)	inhibition at 10 µM (PDE9)	PDE1A, % inhibition (at 10 μM) (PDE1A; at 10 μM)	% inhibition of PDE9 at 10 microM (PDE9)	inhibition at 1 µM (PDE1B; read-out: PDE1B, % inhibition (at 1 μM))	percent inhibition of PDE1A at 2 µM (PDE1A; at 2 μM, % sign not given)	SMILES
2 nM	3 nM	5 nM	-19%	–	–	–	–	COc1ccc(Cn2c(C)cn3c(C4CCc5ccc(Cl)cc54)ncc3c2=O)cc1 (stereo not shown) [Example 74, 3-(6-chloro-2,3-dihydro-1H-inden-1-yl)-7-(4-methoxybenzyl)-6-methylimidazo[1,5-a]pyrazin-8(7H)-one]
49 nM	8 nM	57 nM	31%	–	–	–	–	Cc1cn2c(C3CCOCC3)ncc2c(=O)n1Cc1cccc(Cl)c1 [Example 18, 7-(3-Chlorobenzyl)-6-methyl-3-(tetrahydro-2H-pyran-4-yl)imidazo[1,5-a]pyrazin-8(7H)-one]
5 nM	16 nM	40 nM	18%	–	–	–	–	CCc1cn2c(C3CCOCC3)ncc2c(=O)n1Cc1ccc(OC)cc1 [Example 44, 6-ethyl-7-(4-methoxybenzyl)-3-(tetrahydro-2H-pyran-4-yl)imidazo[1,5-a]pyrazin-8(7H)-one]
760 nM	119 nM	–	–	47%	6%	–	–	Cc1cn2c(N3CCC4OCCC43)ncc2c(=O)n1Cc1cccc(F)c1 (single isomer, unassigned; isomer 2) [99, isomer 2]
–	149 nM	–	6%	–	–	54%	64	Cc1cn2c(C3CCOCC3)ncc2c(=O)n1Cc1cccc(C#N)c1 [Example 45, 3-((6-methyl-8-oxo-3-(tetrahydro-2H-pyran-4-yl)imidazo[1,5-a]pyrazin-7(8H)-yl)methyl)benzonitrile]
112 nM	15 nM	228 nM	14%	–	–	–	–	Cc1cn2c(C3CCOCC3)ncc2c(=O)n1Cc1ccsc1 [Example 79, 6-methyl-3-(tetrahydro-2H-pyran-4-yl)-7-(thiophen-3-ylmethyl)imidazo[1,5-a]pyrazin-8(7H)-one]
106 nM	27 nM	337 nM	–	–	−1%	–	–	Cc1cn2c([C@@H]3CCOC3)ncc2c(=O)n1Cc1cccc(F)c1 (single isomer, unassigned; isomer 1) [31, isomer 1]
699 nM	103 nM	603 nM	5%	–	–	–	–	Cc1cn2c(C3(C#N)CCOCC3)ncc2c(=O)n1Cc1cccc(F)c1 [Example 27, 4-(7-(3-fluorobenzyl)-6-methyl-8-oxo-7,8-dihydroimidazo[1,5-a]pyrazin-3-yl)tetrahydro-2H-pyran-4-carbonitrile]
15 nM	23 nM	34 nM	10%	–	–	–	–	COc1ccc(Cn2c(C)cn3c(C(C)c4nc(C)cs4)ncc3c2=O)cc1 (stereo not shown) [Example 90, 7-(4-methoxybenzyl)-6-methyl-3-(1-(4-methylthiazol-2-yl)ethyl)imidazo[1,5-a]pyrazin-8(7H)-one]
12 nM	6 nM	8 nM	-6%	–	–	–	–	O=c1c2cnc(C3CCOCC3)n2cc(Cc2ccccc2)n1CC1CCCCC1 [Example 3, 6-Benzyl-7-(cyclohexylmethyl)-3-(tetrahydro-2H-pyran-4-yl)imidazo[1,5-a]pyrazin-8(7H)-one]
